In ChEMBL document CHEMBL1255356, “The efflux pump inhibitor reserpine selects multidrug-resistant Streptococcus pneumoniae strains that overexpress the ABC transporters PatA and PatB” (2008):
In brackets after ≈: the same amount, converted by molar mass.

Assays:
[1] = test system: Streptococcus pneumoniae; test: Antibacterial activity against Streptococcus pneumoniae R6 by microdilution method; assay type: functional
[2] = test system: Streptococcus pneumoniae; test: Antibacterial activity against Streptococcus pneumoniae M169 by microdilution method; assay type: functional
[3] = test system: Streptococcus pneumoniae; test: Antibacterial activity against Streptococcus pneumoniae M184 by microdilution method; assay type: functional
[4] = test system: Streptococcus pneumoniae; test: Antibacterial activity against Streptococcus pneumoniae M246 by microdilution method; assay type: functional
[5] = test system: Streptococcus pneumoniae; test: Antibacterial activity against Streptococcus pneumoniae M240 by microdilution method; assay type: functional
[6] = test system: Streptococcus pneumoniae; test: Antibacterial activity against Streptococcus pneumoniae M231 by microdilution method; assay type: functional
[7] = test system: Streptococcus pneumoniae; test: Antibacterial activity against Streptococcus pneumoniae M230 by microdilution method; assay type: functional
[8] = test system: Streptococcus pneumoniae; test: Antibacterial activity against Streptococcus pneumoniae M234 by microdilution method; assay type: functional
[9] = test system: Streptococcus pneumoniae; test: Antibacterial activity against Streptococcus pneumoniae M233 by microdilution method; assay type: functional
[10] = test system: Streptococcus pneumoniae; test: Antibacterial activity against Streptococcus pneumoniae M4 by microdilution method; assay type: functional
[11] = test system: Streptococcus pneumoniae; test: Antibacterial activity against Streptococcus pneumoniae M168 by microdilution method; assay type: functional
[12] = test system: Streptococcus pneumoniae; test: Antibacterial activity against Streptococcus pneumoniae M186 by microdilution method; assay type: functional
[13] = test system: Streptococcus pneumoniae; test: Antibacterial activity against Streptococcus pneumoniae M236 by microdilution method; assay type: functional
[14] = test system: Streptococcus pneumoniae; test: Antibacterial activity against Streptococcus pneumoniae M235 by microdilution method; assay type: functional
[15] = test system: Streptococcus pneumoniae; test: Inhibition of ABC efflux pump in Streptococcus pneumoniae M169 assessed as reduction in ciprofloxacin MIC at 80 ug/ml
[16] = test system: Streptococcus pneumoniae; test: Inhibition of ABC efflux pump in Streptococcus pneumoniae M184 assessed as reduction in ciprofloxacin MIC at 80 ug/ml
[17] = test system: Streptococcus pneumoniae; test: Inhibition of ABC efflux pump in Streptococcus pneumoniae M186 assessed as reduction in ciprofloxacin MIC at 80 ug/ml
[18] = test system: Streptococcus pneumoniae; test: Inhibition of ABC efflux pump in Streptococcus pneumoniae M169 assessed as increase in accumulation of ciprofloxacin by fluorometric uptake assay relative to wild type
[19] = test system: Streptococcus pneumoniae; test: Inhibition of ABC efflux pump in Streptococcus pneumoniae M184 assessed as increase in accumulation of ciprofloxacin by fluorometric uptake assay relative to wild type
[20] = test system: Streptococcus pneumoniae; test: Inhibition of ABC efflux pump in Streptococcus pneumoniae M4 assessed as increase in accumulation of ciprofloxacin by fluorometric uptake assay relative to wild type
[21] = test system: Streptococcus pneumoniae; test: Inhibition of ABC efflux pump in Streptococcus pneumoniae M168 assessed as increase in accumulation of ciprofloxacin by fluorometric uptake assay relative to sStreptococcus pneumoniae M4
[22] = test system: Streptococcus pneumoniae; test: Inhibition of ABC efflux pump in Streptococcus pneumoniae M186 assessed as increase in accumulation of ciprofloxacin by fluorometric uptake assay relative to wild type
[23] = test system: Streptococcus pneumoniae; test: Inhibition of ABC efflux pump in Streptococcus pneumoniae M169 assessed as increase in accumulation of ethidium bromide by fluorescence method after 10 mins relative to wild type; set-up: scale not given: the % may be the effect or the level left
[24] = test system: Streptococcus pneumoniae; test: Inhibition of ABC efflux pump in Streptococcus pneumoniae M184 assessed as increase in accumulation of ethidium bromide by fluorescence method after 10 mins relative to wild type; set-up: scale not given: the % may be the effect or the level left
[25] = test system: Streptococcus pneumoniae; test: Inhibition of ABC efflux pump in Streptococcus pneumoniae M168 assessed as increase in accumulation of ethidium bromide by fluorescence method after 10 mins relative to Streptococcus pneumoniae M4; set-up: scale not given: the % may be the effect or the level left
[26] = test system: Streptococcus pneumoniae; test: Inhibition of ABC efflux pump in Streptococcus pneumoniae M186 assessed as increase in accumulation of ethidium bromide by fluorescence method after 10 mins relative to wild type; set-up: scale not given: the % may be the effect or the level left

COC(=O)[C@H]1[C@H]2C[C@@H]3c4[nH]c5cc(OC)ccc5c4CCN3C[C@H]2C[C@@H](OC(=O)c2cc(OC)c(OC)c(OC)c2)[C@@H]1OC [RESERPINE]
MIC [1]: 64 µg/mL (≈ 105 µM)
MIC [2]: 256 µg/mL (≈ 421 µM)
MIC [3]: 256 µg/mL (≈ 421 µM)
MIC [4]: 64 µg/mL (≈ 105 µM)
MIC [5]: 64 µg/mL (≈ 105 µM)
MIC [6]: 64 µg/mL (≈ 105 µM)
MIC [7]: 256 µg/mL (≈ 421 µM)
MIC [8]: 64 µg/mL (≈ 105 µM)
MIC [9]: 256 µg/mL (≈ 421 µM)
MIC [10]: 64 µg/mL (≈ 105 µM)
MIC [11]: 256 µg/mL (≈ 421 µM)
MIC [12]: 256 µg/mL (≈ 421 µM)
MIC [13]: 64 µg/mL (≈ 105 µM)
MIC [14]: 256 µg/mL (≈ 421 µM)
Activity [15]: 1 µg/mL
Activity [16]: 1 µg/mL
Activity [17]: 1 µg/mL
fold change (FC) [18]: 2.9
fold change (FC) [19]: 2.8
fold change (FC) [20]: 1.6
fold change (FC) [21]: 2.3
fold change (FC) [22]: 2.1
Activity [23]: 24.6%
Activity [24]: 26.7%
Activity [25]: 27.7%
Activity [26]: 32.9%
